Patent US10457675B2, “Histone deacetylase inhibitors and compositions and methods of use thereof” (CHDI Foundation, Inc., priority 2014, dated 2019)

Columns and labels:
[1] = tested on: cellular HDAC activity (Lys-Ac); assay: Cell (Lys-Ac): cellular HDAC activity; type: cell-based
[2] = tested on: cellular histone deacetylase enzymatic activity in Jurkat E6-1 cells; assay: Cell (Lys-TFA): cellular HDAC activity in Jurkat E6-1 cells with Boc-Lys(Tfa)-AMC; type: cell-based; settings: Boc-Lys(Tfa)-AMC substrate
Method: The potency of the compounds is quantified by measuring the cellular histone deacetylase enzymatic activity using the fluorogenic substrate, Boc-Lys(Tfa)-AMC. After penetration in Jurkat E6-1 cells, the substrate is deacetylated to Boc-Lys-AMC. After cell lysis and cleavage by trypsin, the fluorophore AMC is released from the deacetylated substrate only. The fluorescence of the sample is directly related to the histone deacetylase activity in the sample.
Jurkat E6.1 cells are cultured according to standard cell culture protocols in Jurkat E6.1 Growth Media (RPMI without phenol red, 10% FBS, 10 mM HEPES, and 1 mM Sodium Pyruvate). Jurkat E6.1 cells are counted using a Coulter Counter and resuspended in Jurkat E6.1 growth media at a concentration of 75,000 cells/35 μL. 35 μL or 75,000 cells is seeded into Greiner microtitre assay plates. The plates are then incubated at 37° C. and 5% CO2 while other assay components are being prepared.
Stocks of 70 μL aliquots of the 10 mM compound in DMSO are prepared and stored at −20° C. […]
5 μL of each solution of 1:20 diluted compound from above is transferred to the Greiner microtitre assay plates with 75,000 cells/well using the Bravo. […] Finally the top read fluorescence (Excitation: 355 nm, Emission: 460 nm) is measured using PerkinElmer EnVision.

[3] = biological target: Histone Deacetylase 4 (HDAC4) catalytic domain (Homo sapiens (Human), UniProt P56524); assay: Biochemical IC50: HDAC enzymatic activity with fluorogenic substrate Boc-Lys(Tfa)-AMC
Method: The potency of compounds is quantified by measuring the Histone Deacetylase 4 (HDAC4) catalytic domain enzymatic activity using the fluorogenic substrate, Boc-Lys(Tfa)-AMC. The substrate is deacetylated to Boc-Lys-AMC by HDAC4. Cleavage by trypsin results in the release of the fluorophore AMC from the deacetylated substrate. The fluorescence of the sample is directly related to the histone deacetylase activity in the sample.
Stocks of 60 μL aliquots of the 10 mM compound in DMSO are prepared and stored at −20° C. From one stock aliquot of each compound to be tested and the reference compound, a 16-point serial dilution is prepared according to Table 1 using a 125 μL 16-channel Matrix multi-channel pipette (Matrix Technologies Ltd).
2 μL (200×) of each diluted solution and each control (full activity: 100% DMSO alone or full inhibition 1 mM) is stamped into V-bottomed polypropylene 384-well compound plates using either the Bravo (384-well head from Agilent) or 12.5 μL 16-channel Matrix multi-channel pipette (Matrix Technologies Ltd). […]
5 μL of each solution of 1:20 diluted compound from above is transferred to a clear bottomed, black, 384-well assay plate using the Bravo or the Janus (384-well MDT head from Perkin Elmer). […] Finally, the fluorescence is measured (Excitation: 355 nm, Emission: 460 nm) using PerkinElmer EnVision in top read mode.

Chain of Histone Deacetylase 4 (HDAC4) catalytic domain (P56524 648-1032): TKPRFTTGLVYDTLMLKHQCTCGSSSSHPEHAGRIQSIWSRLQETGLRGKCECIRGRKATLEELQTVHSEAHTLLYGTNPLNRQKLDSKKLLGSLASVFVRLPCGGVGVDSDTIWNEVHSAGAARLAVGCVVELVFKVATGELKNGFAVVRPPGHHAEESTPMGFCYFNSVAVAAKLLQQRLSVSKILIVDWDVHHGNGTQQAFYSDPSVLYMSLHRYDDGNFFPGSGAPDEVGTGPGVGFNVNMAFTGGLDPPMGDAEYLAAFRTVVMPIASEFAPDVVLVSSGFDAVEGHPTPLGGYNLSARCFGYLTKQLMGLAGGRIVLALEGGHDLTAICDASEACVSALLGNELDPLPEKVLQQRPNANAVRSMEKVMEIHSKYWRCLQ

IC50 [1] | IC50 [2] | IC50 [3] | Compound
> 50000 nM |  |  | Cc1c(F)cccc1C1(C(=O)NO)CCc2nc(C3CC3)ncc21 (stereo in doubt) [Example 57, (R)-2-Cyclopropyl-5-(3-fluoro-2-methylphenyl)-N-hydroxy-6,7-dihydro-5H-cyclopenta[d]pyrimidine-5-carboxamide]
> 50000 nM | 770 nM |  | 5-(3-Fluoro-2-methylphenyl)-N-hydroxy-1-(2,2,2-trifluoroethyl)-4,5,6,7-tetrahydro-1H-indazole-5-carboxamide and 5-(3-fluoro-2-methylphenyl)-N-hydroxy-2-(2,2,2-trifluoroethyl)-4,5,6,7-tetrahydro-2H-indazole-5-carboxamide [Example 35]
> 50000 nM | 370 nM | 600 nM | 5-(3-Fluoro-2-methylphenyl)-1-(4-fluorobenzyl)-N-hydroxy-4,5,6,7-tetrahydro-1H-indazole-5-carboxamide and 5-(3-fluoro-2-methylphenyl)-2-(4-fluorobenzyl)-N-hydroxy-4,5,6,7-tetrahydro-2H-indazole-5-carboxamide [Example 36]
